Reference: US10414811B2, “Protease-resistant lipidated GLP-1 analogs” (MEDIMMUNE LIMITED, priority 2015, dated 2019)
Read-outs that look alike come from different tables or passages of the source. Numbered stars: 1 amine (or outer) side, 2 acyl side, 3 side chain; on linkers, the order of the positions; unused ones are H or OH. Square brackets hold non-standard residues; d marks the D form. Side chains are listed from the residue outwards. Peptide text beside a SMILES is read from it. * marks the point of attachment. γGlu = O=C(O)[C@H](CCC(=O)[*:2])N[*:1]; αMeF = C[C@](N)(Cc1ccccc1)C(=O)O; αMeK = C[C@](N)(CCCCN)C(=O)O; Lauroyl = CCCCCCCCCCCC(=O)*; αMeS = C[C@](N)(CO)C(=O)O; AEEA = NCCOCCOCC(=O)O; Aib = CC(C)(N)C(=O)O

Assays:
Assay type in all cases: cell-based
[1] = molecular target: T1, human GLP-1 receptor (GLP-1R) (Homo sapiens, UniProt P43220); test: cAMP assay, human GLP-1R cells
T1 construct: expressed in transfected cells
T1 sequence (P43220 24-463): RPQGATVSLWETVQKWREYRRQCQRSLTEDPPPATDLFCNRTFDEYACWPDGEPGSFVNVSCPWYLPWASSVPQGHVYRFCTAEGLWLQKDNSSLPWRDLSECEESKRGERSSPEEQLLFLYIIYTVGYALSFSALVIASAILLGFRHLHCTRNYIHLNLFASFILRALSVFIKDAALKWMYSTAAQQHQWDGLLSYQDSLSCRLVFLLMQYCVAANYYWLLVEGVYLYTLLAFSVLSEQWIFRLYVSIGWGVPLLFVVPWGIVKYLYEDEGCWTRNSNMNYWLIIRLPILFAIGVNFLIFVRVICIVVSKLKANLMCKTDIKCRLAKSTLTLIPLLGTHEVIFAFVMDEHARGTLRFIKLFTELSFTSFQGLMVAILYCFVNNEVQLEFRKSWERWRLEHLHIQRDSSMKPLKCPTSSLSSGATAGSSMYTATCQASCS
Method in brief: (§1)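 Peptide-stimulated cAMP measured by two-step HTRF after a 30 min room-temperature incubation with receptor-expressing cells (hGLP-1R, hGIPR at 1×10^5 cells/ml; hGCGR at 2×10^5 cells/ml). Duplicate dilutions; EC50 from 4-parameter logistic fit of % Delta F.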

[2] = molecular target: T2, human glucagon receptor (GCGR) (Homo sapiens, UniProt P47871); test: cAMP assay, human GCGR cells
T2 construct: expressed in transfected cells
T2 sequence (P47871 26-477): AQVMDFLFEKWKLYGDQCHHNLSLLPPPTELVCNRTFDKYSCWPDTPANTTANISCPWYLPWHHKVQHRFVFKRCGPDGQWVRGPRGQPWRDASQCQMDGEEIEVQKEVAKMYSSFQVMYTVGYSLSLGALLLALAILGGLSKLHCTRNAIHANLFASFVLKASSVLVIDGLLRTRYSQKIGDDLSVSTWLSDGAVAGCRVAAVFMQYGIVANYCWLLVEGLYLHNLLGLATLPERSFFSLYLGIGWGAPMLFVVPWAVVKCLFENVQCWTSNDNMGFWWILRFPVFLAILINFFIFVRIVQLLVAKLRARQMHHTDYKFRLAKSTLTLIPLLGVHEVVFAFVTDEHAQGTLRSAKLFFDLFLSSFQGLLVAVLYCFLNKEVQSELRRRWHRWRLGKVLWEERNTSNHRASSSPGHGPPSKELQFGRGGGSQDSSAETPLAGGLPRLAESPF
Method in brief: as §1

[3] = molecular target: T3, human glucose-dependent insulinotropic peptide receptor (GIPR) (Homo sapiens, UniProt P48546); test: cAMP assay, human GIPR cells
T3 construct: expressed in transfected cells
T3 sequence (P48546 22-466): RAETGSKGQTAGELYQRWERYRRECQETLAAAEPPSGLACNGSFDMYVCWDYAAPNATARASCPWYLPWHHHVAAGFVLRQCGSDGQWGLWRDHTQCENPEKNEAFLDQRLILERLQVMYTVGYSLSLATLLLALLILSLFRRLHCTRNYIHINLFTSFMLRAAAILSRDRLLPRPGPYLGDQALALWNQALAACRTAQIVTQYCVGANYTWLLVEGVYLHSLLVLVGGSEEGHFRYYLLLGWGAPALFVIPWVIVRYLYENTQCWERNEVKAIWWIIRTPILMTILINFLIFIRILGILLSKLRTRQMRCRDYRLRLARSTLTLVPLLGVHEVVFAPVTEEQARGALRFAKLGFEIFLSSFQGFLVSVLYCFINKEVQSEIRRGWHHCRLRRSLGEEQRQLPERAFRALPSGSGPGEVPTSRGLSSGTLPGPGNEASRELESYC
Method in brief: as §1

[4] = cAMP assay, first determination (n1), read-out: Primary assay EC50 GLP-1R n1
[5] = cAMP assay, second determination (n2), read-out: Primary assay EC50 GLP-1R n2
[6] = mean of n1 and n2, read-out: Mean pM GLP-1R
[7] = cAMP assay, first determination (n1), read-out: Primary assay EC50 Gluc-R (n1)
[8] = cAMP assay, second determination (n2), read-out: Primary assay EC50 Gluc-R (n2)
[9] = cAMP assay, first determination (n1), read-out: Primary assay EC50 GIP-R (n1)
[10] = cAMP assay, second determination (n2), read-out: Primary assay EC50 GIP-R (n2)
[11] = tris-lipidated peptides, mean of n1 and n2, read-out: Primary assay EC50 Mean pM GLP-1R
[12] = tris-lipidated peptides, replicate n1, read-out: Primary assay EC50 GLP-1R n1
[13] = tris-lipidated peptides, replicate n2, read-out: Primary assay EC50 GLP-1R n2

Structure (SMILES)	EC50 [1, 4] [pM]	EC50 [1, 5] [pM]	EC50 [1, 6] [pM]	EC50 [2, 7] [nM]	EC50 [2, 8] [nM]	EC50 [3, 9] [nM]	EC50 [3, 10] [nM]	EC50 [1, 11] [pM]	EC50 [1, 12] [pM]	EC50 [1, 13] [pM]	also measured
CC[C@H](C)[C@H](NC(=O)[C@](C)(Cc1ccccc1)NC(=O)[C@H](CCC(=O)O)NC(=O)[C@H](CCCCNC(=O)COCCOCCNC(=O)COCCOCCNC(=O)COCCOCCNC(=O)CCCCCCCCCCCCCCCCC(=O)O)NC(=O)[C@H](C)NC(=O)[C@H](C)NC(=O)[C@H](CCC(=O)O)NC(=O)CNC(=O)[C@H](CCC(=O)O)NC(=O)[C@H](CC(C)C)NC(=O)[C@](C)(Cc1ccccc1)NC(=O)[C@H](CO)NC(=O)[C@](C)(CO)NC(=O)[C@@H](NC(=O)[C@H](CC(=O)O)NC(=O)[C@H](CO)NC(=O)[C@@H](NC(=O)[C@](C)(Cc1ccccc1)NC(=O)[C@H](CO)NC(=O)CNC(=O)[C@H](CCC(=O)O)NC(=O)C(C)(C)NC(=O)[C@@H](N)Cc1c[nH]cn1)[C@@H](C)O)C(C)C)C(=O)N[C@@H](C)C(=O)N[C@@](C)(Cc1ccccc1)C(=O)N[C@H](C(=O)N[C@H](C(=O)N[C@@](C)(CCCCN)C(=O)NCC(=O)NCC(N)=O)C(C)C)C(C)C [compound 163]	63	49	56	≥ 25	≥ 25	≥ 25	≥ 25	–	–	–	–
CCCCCCCCCCCC(=O)N[C@@H](CCC(=O)NCCOCCOCC(=O)NCCOCCOCC(=O)NCCCC[C@H](NC(=O)[C@H](CCC(=O)O)NC(=O)[C@H](CC(C)C)NC(=O)[C@H](CCCCNC(=O)COCCOCCNC(=O)COCCOCCNC(=O)CC[C@H](NC(=O)CCCCCCCCCCC)C(=O)O)NC(=O)[C@H](CO)NC(=O)[C@](C)(CO)NC(=O)[C@@H](NC(=O)[C@H](CC(=O)O)NC(=O)[C@H](CO)NC(=O)[C@@H](NC(=O)[C@](C)(Cc1ccccc1)NC(=O)[C@H](CO)NC(=O)CNC(=O)[C@H](CCC(=O)O)NC(=O)C(C)(C)NC(=O)[C@@H](N)Cc1c[nH]cn1)[C@@H](C)O)C(C)C)C(=O)N[C@@H](CCC(=O)O)C(=O)N[C@@H](C)C(=O)N[C@@H](C)C(=O)N[C@@](C)(CCCCN)C(=O)N[C@@H](CCC(=O)O)C(=O)N[C@@H](Cc1ccccc1)C(=O)N[C@H](C(=O)N[C@@H](C)C(=O)N[C@@H](Cc1ccccc1)C(=O)N[C@@H](CCCCNC(=O)COCCOCCNC(=O)COCCOCCNC(=O)CC[C@H](NC(=O)CCCCCCCCCCC)C(=O)O)C(=O)N[C@H](C(=O)N[C@@H](CCC(=O)O)C(=O)NCC(=O)NCC(N)=O)C(C)C)[C@@H](C)CC)C(=O)O [compound 479] (H-H[Aib]EGS[αMeF]TSDV[αMeS]SK([AEEA-AEEA-γGlu-Lauroyl])LEK([AEEA-AEEA-γGlu-Lauroyl])EAA[αMeK]EFIAFK([AEEA-AEEA-γGlu-Lauroyl])VEGG-NH2)	–	–	–	–	–	–	–	186	132	239	EC50 ([2]; tris-lipidated peptides, first replicate, read-out: Primary assay EC50 Gluc-R (n1)): 19.8 nM; EC50 ([3]; tris-lipidated peptides, second replicate, read-out: Primary assay EC50 GIP-R (n2)): 19.8 nM
CC[C@H](C)[C@H](NC(=O)[C@](C)(Cc1ccccc1)NC(=O)[C@H](CCC(=O)O)NC(=O)[C@](C)(CCCCN)NC(=O)[C@H](C)NC(=O)[C@H](C)NC(=O)[C@H](CCC(=O)O)NC(=O)CNC(=O)[C@H](CCC(=O)O)NC(=O)[C@H](CC(C)C)NC(=O)[C@](C)(Cc1ccccc1)NC(=O)[C@H](CO)NC(=O)[C@](C)(CO)NC(=O)[C@@H](NC(=O)[C@H](CC(=O)O)NC(=O)CNC(=O)[C@@H](NC(=O)[C@](C)(Cc1ccccc1)NC(=O)[C@H](CO)NC(=O)CNC(=O)[C@H](CCC(=O)O)NC(=O)C(C)(C)NC(=O)[C@@H](N)Cc1c[nH]cn1)[C@@H](C)O)C(C)C)C(=O)N[C@@H](C)C(=O)N[C@@](C)(Cc1ccccc1)C(=O)N[C@H](C(=O)N[C@H](C(=O)N[C@@](C)(CCCCN)C(=O)NCC(=O)NCC(N)=O)C(C)C)C(C)C [compound 25] (H-H[Aib]EGS[αMeF]TGDV[αMeS]S[αMeF]LEGEAA[αMeK]E[αMeF]IA[αMeF]VV[αMeK]GG-NH2)	500	590	544	≥ 100	22	≥ 100	≥ 100	–	–	–	–
CCCCCCCCCCCC(=O)N[C@@H](CCC(=O)NCCOCCOCC(=O)NCCOCCOCC(=O)NCCCC[C@H](NC(=O)CNC(=O)[C@H](CCC(=O)O)NC(=O)[C@H](CC(C)C)NC(=O)[C@H](CCCCNC(=O)COCCOCCNC(=O)COCCOCCNC(=O)CC[C@H](NC(=O)CCCCCCCCCCC)C(=O)O)NC(=O)[C@H](CO)NC(=O)[C@](C)(CO)NC(=O)[C@@H](NC(=O)[C@H](CC(=O)O)NC(=O)[C@H](CO)NC(=O)[C@@H](NC(=O)[C@](C)(Cc1ccccc1)NC(=O)[C@H](CO)NC(=O)CNC(=O)[C@H](CCC(=O)O)NC(=O)C(C)(C)NC(=O)[C@@H](N)Cc1c[nH]cn1)[C@@H](C)O)C(C)C)C(=O)N[C@@H](C)C(=O)N[C@@H](C)C(=O)N[C@@](C)(CCCCN)C(=O)N[C@@H](CCC(=O)O)C(=O)N[C@@H](Cc1ccccc1)C(=O)N[C@H](C(=O)N[C@@H](CCCCNC(=O)COCCOCCNC(=O)COCCOCCNC(=O)CC[C@H](NC(=O)CCCCCCCCCCC)C(=O)O)C(=O)N[C@@H](Cc1ccccc1)C(=O)N[C@H](C(=O)N[C@H](C(=O)N[C@@H](CCC(=O)O)C(=O)NCC(=O)NCC(N)=O)C(C)C)C(C)C)[C@@H](C)CC)C(=O)O [compound 448] (H-H[Aib]EGS[αMeF]TSDV[αMeS]SK([AEEA-AEEA-γGlu-Lauroyl])LEGK([AEEA-AEEA-γGlu-Lauroyl])AA[αMeK]EFIK([AEEA-AEEA-γGlu-Lauroyl])FVVEGG-NH2)	–	–	–	–	–	–	–	92.4	78.8	106	EC50 ([2]; tris-lipidated peptides, second replicate, read-out: Primary assay EC50 Gluc-R (n2)): 19.9 nM; EC50 ([3]; tris-lipidated peptides, first replicate, read-out: Primary assay EC50 GIP-R (n1)): 19.9 nM

Continued, in another order:

EC50 [1, 4] [pM]	EC50 [1, 5] [pM]	EC50 [1, 6] [pM]	EC50 [2, 7] [nM]	EC50 [2, 8] [nM]	EC50 [3, 9] [nM]	EC50 [3, 10] [nM]	EC50 [1, 11] [pM]	EC50 [1, 12] [pM]	EC50 [1, 13] [pM]	Structure (SMILES)	also measured
–	–	154	–	–	–	–	–	–	–	CC[C@H](C)[C@H](NC(=O)[C@](C)(Cc1ccccc1)NC(=O)[C@H](CCC(=O)O)NC(=O)[C@](C)(CCCCN)NC(=O)[C@H](C)NC(=O)[C@H](C)NC(=O)[C@H](CCC(=O)O)NC(=O)CNC(=O)[C@H](CCC(=O)O)NC(=O)[C@H](CC(C)C)NC(=O)[C@](C)(Cc1ccccc1)NC(=O)[C@H](CO)NC(=O)[C@](C)(CO)NC(=O)[C@@H](NC(=O)[C@H](CC(=O)O)NC(=O)[C@H](CO)NC(=O)[C@@H](NC(=O)[C@](C)(Cc1ccccc1)NC(=O)[C@H](CO)NC(=O)CNC(=O)[C@H](CCC(=O)O)NC(=O)C(C)(C)NC(=O)[C@@H](N)Cc1c[nH]cn1)[C@@H](C)O)C(C)C)C(=O)N[C@@H](C)C(=O)N[C@@](C)(Cc1ccccc1)C(=O)N[C@H](C(=O)N[C@H](C(=O)N[C@@H](CCCCNC(=O)CCCCCNC(=O)CCCCCCCCCCCCCCCCC(=O)O)C(=O)NCC(=O)NCC(N)=O)C(C)C)C(C)C [compound 194]	EC50 ([1]; first run (n1), cAMP activity, read-out: Primary assay EC50 GLP-1R n1): 240 pM; EC50 ([1]; second run (n2), cAMP activity, read-out: Primary assay EC50 GLP-1R n2): 68 pM; EC50 ([2]; first run (n1), cAMP activity of substituted and mono-lipidated peptides, read-out: Primary assay EC50 Gluc-R): ≥ 28 nM; EC50 ([2]; second run (n2), cAMP activity, read-out: Primary assay EC50 Gluc-R): ≥ 28 nM; EC50 ([3]; first run (n1), cAMP activity, read-out: Primary assay EC50 GIP-R): ≥ 28 nM; EC50 ([3]; second run (n2), cAMP activity, read-out: Primary assay EC50 GIP-R): ≥ 28 nM
130	50	87.5	≥ 27	≥ 27	≥ 27	≥ 27	–	–	–	CCCCCCCCCCCCCCCCCC(=O)NCCCCCC(=O)NCCCCCC(=O)NCCCC[C@H](NC(=O)[C@@H](NC(=O)[C@@H](NC(=O)[C@](C)(Cc1ccccc1)NC(=O)[C@H](C)NC(=O)[C@@H](NC(=O)[C@](C)(Cc1ccccc1)NC(=O)[C@H](CCC(=O)O)NC(=O)[C@](C)(CCCCN)NC(=O)[C@H](C)NC(=O)[C@H](C)NC(=O)[C@H](CCC(=O)O)NC(=O)CNC(=O)[C@H](CCC(=O)O)NC(=O)[C@H](CC(C)C)NC(=O)[C@](C)(Cc1ccccc1)NC(=O)[C@H](CO)NC(=O)[C@](C)(CO)NC(=O)[C@@H](NC(=O)[C@H](CC(=O)O)NC(=O)[C@H](CO)NC(=O)[C@@H](NC(=O)[C@](C)(Cc1ccccc1)NC(=O)[C@H](CO)NC(=O)CNC(=O)[C@H](CCC(=O)O)NC(=O)C(C)(C)NC(=O)[C@@H](N)Cc1c[nH]cn1)[C@@H](C)O)C(C)C)[C@@H](C)CC)C(C)C)C(C)C)C(=O)NCC(=O)NCC(N)=O [compound 186]	–
